Source: ChEMBL document CHEMBL4507327 (2021)

Assays:
[1] = target: Melatonin receptor type 1A (Homo sapiens) (UniProt P48039); assay: Inhibition of Melatonin MT1 at 10 µM in the Eurofins-Panlabs radioligand binding assay (Eurofins_assay_251600); parameters: ligand concentration 0.05 nM; details: Compound concentration 10.0 uM
[2] = target: Neuropeptide Y receptor type 1 (Homo sapiens) (UniProt P25929); assay: Inhibition of Neuropeptide Y Y1 at 10 µM in the Eurofins-Panlabs radioligand binding assay (Eurofins_assay_257010); details: Compound concentration 10.0 uM
[3] = target: Purinergic P2Y (Rattus norvegicus) (UniProt O35811+Q9EPX4+P49651+Q63371+P41232+O35881+Q6GUG4); assay: Inhibition of Purinergic P2Y at compound concentration of 10.0 uM in the Eurofins-Panlabs radioligand binding assay (Eurofins_assay_268820); format: protein assay; parameters: ligand concentration 0.1 nM; details: Compound concentration 10.0 uM
[4] = target: Tyrosine-protein kinase ABL1 (Homo sapiens, UniProt P00519); assay: Abl(ABL1IHY1) Takeda global kinase panel
Tyrosine-protein kinase ABL1, sequence (P00519 whole entry): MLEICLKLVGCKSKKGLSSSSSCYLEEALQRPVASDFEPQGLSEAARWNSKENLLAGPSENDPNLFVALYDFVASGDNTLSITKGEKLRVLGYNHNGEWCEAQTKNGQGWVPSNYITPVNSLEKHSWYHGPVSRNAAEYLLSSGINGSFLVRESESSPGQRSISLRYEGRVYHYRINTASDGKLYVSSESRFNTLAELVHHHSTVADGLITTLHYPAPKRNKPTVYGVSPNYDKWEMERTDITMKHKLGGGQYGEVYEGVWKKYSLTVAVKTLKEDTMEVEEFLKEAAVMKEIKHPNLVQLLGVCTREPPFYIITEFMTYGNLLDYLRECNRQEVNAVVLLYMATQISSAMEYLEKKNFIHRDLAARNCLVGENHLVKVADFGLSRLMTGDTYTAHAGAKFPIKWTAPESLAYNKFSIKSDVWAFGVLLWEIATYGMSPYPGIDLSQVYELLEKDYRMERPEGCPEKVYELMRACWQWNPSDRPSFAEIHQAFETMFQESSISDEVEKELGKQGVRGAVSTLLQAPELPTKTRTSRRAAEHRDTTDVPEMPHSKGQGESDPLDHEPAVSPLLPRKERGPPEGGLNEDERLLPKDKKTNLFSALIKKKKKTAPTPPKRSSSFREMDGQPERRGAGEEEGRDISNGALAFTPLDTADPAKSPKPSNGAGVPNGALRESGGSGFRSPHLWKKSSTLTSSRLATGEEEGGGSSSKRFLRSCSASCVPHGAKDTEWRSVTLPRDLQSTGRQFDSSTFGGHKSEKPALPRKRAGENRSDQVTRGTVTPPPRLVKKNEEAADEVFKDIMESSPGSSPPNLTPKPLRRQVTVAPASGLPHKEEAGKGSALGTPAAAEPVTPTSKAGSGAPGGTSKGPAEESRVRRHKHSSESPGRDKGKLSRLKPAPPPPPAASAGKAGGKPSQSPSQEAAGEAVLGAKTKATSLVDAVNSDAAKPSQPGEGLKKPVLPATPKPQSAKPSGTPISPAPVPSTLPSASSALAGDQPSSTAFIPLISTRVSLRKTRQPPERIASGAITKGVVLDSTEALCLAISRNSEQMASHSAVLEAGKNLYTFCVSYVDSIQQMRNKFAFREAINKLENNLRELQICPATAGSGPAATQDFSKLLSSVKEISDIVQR

[5] = target: RAC-beta serine/threonine-protein kinase (Homo sapiens, UniProt P31751); assay: Akt2 [PKBbeta(AKT2CGY1)] Takeda global kinase panel
[6] = target: BMP-2-inducible protein kinase (Homo sapiens, UniProt Q9NSY1); assay: BIKE(BM2KLGY1) Takeda global kinase panel
[7] = target: Serine/threonine-protein kinase B-raf (Homo sapiens, UniProt P15056); assay: BRAF(BRAFLGY1) Takeda global kinase panel
[8] = target: Peripheral plasma membrane protein CASK (Homo sapiens, UniProt O14936); assay: CASK(CASKLGY1) Takeda global kinase panel
[9] = target: Cyclin-dependent kinase 8 (Homo sapiens, UniProt P49336); assay: CDK8(CDK8CGS1) Takeda global kinase panel
[10] = target: Dual specificity protein kinase CLK2 (Homo sapiens, UniProt P49760); assay: CLK2(CLK2LGF1) Takeda global kinase panel
[11] = target: Casein kinase II subunit alpha' (Homo sapiens, UniProt P19784); assay: CK2alpha2(C2A2LGK1) Takeda global kinase panel
[12] = target: Dual specificity tyrosine-phosphorylation-regulated kinase 1B (Homo sapiens, UniProt Q9Y463); assay: DYRK1B(DY1BLHY1) Takeda global kinase panel
[13] = target: Ephrin type-A receptor 6 (Homo sapiens, UniProt Q9UF33); assay: EphA6(EPA6LGI5) Takeda global kinase panel
[14] = target: Ephrin type-A receptor 7 (Homo sapiens, UniProt Q15375); assay: EphA7(EPA7LGF1) Takeda global kinase panel
Ephrin type-A receptor 7, sequence (Q15375 whole entry): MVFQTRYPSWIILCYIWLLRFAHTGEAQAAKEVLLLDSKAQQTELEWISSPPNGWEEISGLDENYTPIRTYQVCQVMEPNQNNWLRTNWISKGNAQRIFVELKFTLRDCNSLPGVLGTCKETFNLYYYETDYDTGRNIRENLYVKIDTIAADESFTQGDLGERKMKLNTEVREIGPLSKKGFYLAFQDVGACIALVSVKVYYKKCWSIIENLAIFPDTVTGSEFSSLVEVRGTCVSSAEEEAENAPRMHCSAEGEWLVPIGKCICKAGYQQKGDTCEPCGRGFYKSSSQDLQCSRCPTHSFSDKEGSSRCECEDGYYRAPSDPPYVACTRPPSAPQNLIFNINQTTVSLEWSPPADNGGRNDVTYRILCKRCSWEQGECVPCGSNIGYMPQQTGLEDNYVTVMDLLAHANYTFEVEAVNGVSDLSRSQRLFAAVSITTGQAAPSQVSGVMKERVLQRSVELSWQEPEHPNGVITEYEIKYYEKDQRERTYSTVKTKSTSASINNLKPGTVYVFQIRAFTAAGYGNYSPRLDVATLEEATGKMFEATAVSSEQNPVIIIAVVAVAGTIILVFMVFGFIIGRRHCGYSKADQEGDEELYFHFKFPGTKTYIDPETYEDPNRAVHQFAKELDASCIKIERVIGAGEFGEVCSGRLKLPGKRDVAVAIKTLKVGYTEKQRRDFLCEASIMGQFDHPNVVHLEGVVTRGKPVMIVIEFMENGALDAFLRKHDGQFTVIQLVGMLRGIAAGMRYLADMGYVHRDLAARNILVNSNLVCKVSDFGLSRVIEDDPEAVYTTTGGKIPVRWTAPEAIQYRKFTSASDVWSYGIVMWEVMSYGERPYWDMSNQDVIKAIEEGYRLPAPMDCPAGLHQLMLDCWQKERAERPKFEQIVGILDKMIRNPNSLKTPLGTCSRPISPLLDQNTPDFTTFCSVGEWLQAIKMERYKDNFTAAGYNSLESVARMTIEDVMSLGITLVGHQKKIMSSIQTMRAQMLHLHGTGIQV

[15] = target: Ephrin type-B receptor 2 (Homo sapiens, UniProt P29323); assay: EphB2(EPB2LGY1) Takeda global kinase panel
Ephrin type-B receptor 2, sequence (P29323 whole entry): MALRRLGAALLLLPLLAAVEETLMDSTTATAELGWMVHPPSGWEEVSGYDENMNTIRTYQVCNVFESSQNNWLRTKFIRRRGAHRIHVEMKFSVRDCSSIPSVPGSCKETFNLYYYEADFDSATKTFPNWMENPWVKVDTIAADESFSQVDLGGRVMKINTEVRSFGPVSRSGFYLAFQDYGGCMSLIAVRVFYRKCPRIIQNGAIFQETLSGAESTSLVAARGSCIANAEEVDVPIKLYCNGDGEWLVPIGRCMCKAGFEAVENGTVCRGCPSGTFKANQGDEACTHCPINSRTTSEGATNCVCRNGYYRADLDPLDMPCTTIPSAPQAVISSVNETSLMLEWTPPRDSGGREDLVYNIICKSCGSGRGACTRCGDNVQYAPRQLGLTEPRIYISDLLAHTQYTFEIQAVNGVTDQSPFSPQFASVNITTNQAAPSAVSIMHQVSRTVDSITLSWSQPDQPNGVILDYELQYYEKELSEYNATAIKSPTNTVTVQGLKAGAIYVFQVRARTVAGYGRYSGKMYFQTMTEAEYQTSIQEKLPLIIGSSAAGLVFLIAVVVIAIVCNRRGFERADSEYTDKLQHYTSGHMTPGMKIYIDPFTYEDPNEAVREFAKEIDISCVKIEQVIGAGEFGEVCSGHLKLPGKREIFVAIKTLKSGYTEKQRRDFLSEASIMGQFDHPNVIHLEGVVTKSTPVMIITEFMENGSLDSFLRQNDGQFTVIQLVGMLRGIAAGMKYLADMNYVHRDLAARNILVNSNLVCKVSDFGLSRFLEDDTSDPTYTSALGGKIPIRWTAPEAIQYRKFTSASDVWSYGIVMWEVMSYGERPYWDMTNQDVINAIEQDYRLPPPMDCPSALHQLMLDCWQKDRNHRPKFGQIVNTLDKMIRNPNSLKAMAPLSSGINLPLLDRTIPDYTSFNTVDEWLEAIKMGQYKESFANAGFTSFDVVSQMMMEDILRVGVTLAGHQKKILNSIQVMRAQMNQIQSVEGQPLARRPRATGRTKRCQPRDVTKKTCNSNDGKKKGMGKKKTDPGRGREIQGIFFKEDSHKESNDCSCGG

[16] = target: Fibroblast growth factor receptor 4 (Homo sapiens, UniProt P22455); assay: FGFR4(FGF4LGF1) Takeda global kinase panel
[17] = target: Vascular endothelial growth factor receptor 3 (Homo sapiens, UniProt P35916); assay: FLT4(FLT4LGY1) Takeda global kinase panel
[18] = target: Mast/stem cell growth factor receptor Kit (Homo sapiens, UniProt P10721); assay: Kit(KIT1MGC1) Takeda global kinase panel
[19] = target: Dual specificity mitogen-activated protein kinase kinase 1 (Homo sapiens, UniProt Q02750); assay: MEK1 [MAP2K1(M2K1LGF1)] Takeda global kinase panel
[20] = target: Dual specificity mitogen-activated protein kinase kinase 6 (Homo sapiens, UniProt P52564); assay: MKK6 [MAP2K6(M2K6LGF1)] Takeda global kinase panel
Dual specificity mitogen-activated protein kinase kinase 6, sequence (P52564 whole entry): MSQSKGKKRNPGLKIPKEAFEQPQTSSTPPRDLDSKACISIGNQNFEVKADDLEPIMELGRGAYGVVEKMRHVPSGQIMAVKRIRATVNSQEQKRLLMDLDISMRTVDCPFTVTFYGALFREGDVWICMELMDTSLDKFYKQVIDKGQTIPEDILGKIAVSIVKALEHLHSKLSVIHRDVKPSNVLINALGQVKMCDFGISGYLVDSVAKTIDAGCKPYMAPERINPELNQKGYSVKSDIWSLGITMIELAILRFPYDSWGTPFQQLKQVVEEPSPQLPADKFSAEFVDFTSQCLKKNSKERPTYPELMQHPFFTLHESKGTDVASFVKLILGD

[21] = target: Mitogen-activated protein kinase kinase kinase 12 (Homo sapiens, UniProt Q12852); assay: DLK(M312CGY1) Takeda global kinase panel
[22] = target: Microtubule-associated serine/threonine-protein kinase 3 (Homo sapiens, UniProt O60307); assay: MAST3(MAS3LGE1) Takeda global kinase panel
[23] = target: Muscle, skeletal receptor tyrosine-protein kinase (Homo sapiens, UniProt O15146); assay: MUSK(MUSKLGY1) Takeda global kinase panel
[24] = target: Serine/threonine-protein kinase Nek1 (Homo sapiens, UniProt Q96PY6); assay: Nek1(NEK1LGY1) Takeda global kinase panel
[25] = target: Serine/threonine-protein kinase Nek5 (Homo sapiens, UniProt Q6P3R8); assay: Nek5(NEK5LGRD) Takeda global kinase panel
[26] = target: NUAK family SNF1-like kinase 1 (Homo sapiens, UniProt O60285); assay: NuaK1(NUA1LGF5) Takeda global kinase panel
[27] = target: Calcium/calmodulin-dependent protein kinase type 1B (Homo sapiens, UniProt Q6P2M8); assay: CaMK1beta(PNCKLGRI) Takeda global kinase panel
[28] = target: cGMP-dependent protein kinase 2 (Homo sapiens, UniProt Q13237); assay: PKG2(PRG2LHY1) Takeda global kinase panel
[29] = target: Proto-oncogene tyrosine-protein kinase ROS (Homo sapiens, UniProt P08922); assay: Ros(ROS1PHY1) Takeda global kinase panel
[30] = target: Ribosomal protein S6 kinase alpha-2 (Homo sapiens, UniProt Q15349); assay: RSK3(R6A1CGE1) Takeda global kinase panel
[31] = target: Serine/threonine-protein kinase Sgk2 (Homo sapiens, UniProt Q9HBY8); assay: SGK2(SGK2LGE5) Takeda global kinase panel
[32] = target: Tyrosine-protein kinase Tec (Homo sapiens, UniProt P42680); assay: TEC(TEC1CGD1) Takeda global kinase panel
[33] = target: Serine/threonine-protein kinase tousled-like 1 (Homo sapiens, UniProt Q9UKI8); assay: TLK1(TLK1LGP1) Takeda global kinase panel
[34] = target: Non-receptor tyrosine-protein kinase TNK1 (Homo sapiens, UniProt Q13470); assay: Tnk1(TNK1LGY1) Takeda global kinase panel
Non-receptor tyrosine-protein kinase TNK1, sequence (Q13470 whole entry): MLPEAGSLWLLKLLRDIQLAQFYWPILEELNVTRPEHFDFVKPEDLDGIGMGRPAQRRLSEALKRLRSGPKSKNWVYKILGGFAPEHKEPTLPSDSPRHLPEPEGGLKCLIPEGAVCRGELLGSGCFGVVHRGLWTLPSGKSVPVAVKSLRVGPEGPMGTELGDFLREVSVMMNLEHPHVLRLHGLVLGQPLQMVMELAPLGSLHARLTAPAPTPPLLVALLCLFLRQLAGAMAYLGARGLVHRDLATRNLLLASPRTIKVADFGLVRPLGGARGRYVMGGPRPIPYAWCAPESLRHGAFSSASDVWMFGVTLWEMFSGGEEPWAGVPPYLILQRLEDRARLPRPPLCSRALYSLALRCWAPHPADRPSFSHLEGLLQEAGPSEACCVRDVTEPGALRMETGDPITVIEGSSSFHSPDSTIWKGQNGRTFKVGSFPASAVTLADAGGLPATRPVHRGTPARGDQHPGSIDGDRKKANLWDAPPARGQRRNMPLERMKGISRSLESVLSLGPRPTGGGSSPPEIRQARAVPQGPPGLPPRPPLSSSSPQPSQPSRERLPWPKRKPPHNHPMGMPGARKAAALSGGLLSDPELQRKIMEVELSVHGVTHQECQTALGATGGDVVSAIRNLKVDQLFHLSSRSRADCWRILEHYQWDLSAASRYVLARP

[35] = target: Serine/threonine-protein kinase ULK3 (Homo sapiens, UniProt Q6PHR2); assay: ULK3(ULK3LGF1) Takeda global kinase panel
[36] = target: Mitogen-activated protein kinase kinase kinase 20 (Homo sapiens, UniProt Q9NYL2); assay: ZAK(ZAK1LGY1) Takeda global kinase panel
[37] = target: Phosphatidylinositol 4,5-bisphosphate 3-kinase catalytic subunit alpha isoform (Homo sapiens, UniProt P42336); assay: PI3KCA(PI3ACGR1) Takeda global kinase panel
[38] = target: Endothelin receptor type B (Homo sapiens) (UniProt P24530); details: Compound concentration 10.0 uM
[39] = target: Histamine H3 receptor (Homo sapiens) (UniProt Q9Y5N1); details: Compound concentration 10.0 uM
[40] = target: Muscarinic acetylcholine receptor M3 (Homo sapiens) (UniProt P20309); details: Compound concentration 10.0 uM
[41] = target: Androgen receptor (Homo sapiens) (UniProt P10275); details: Compound concentration 10.0 uM
Androgen receptor (Homo sapiens), sequence (P10275 whole entry): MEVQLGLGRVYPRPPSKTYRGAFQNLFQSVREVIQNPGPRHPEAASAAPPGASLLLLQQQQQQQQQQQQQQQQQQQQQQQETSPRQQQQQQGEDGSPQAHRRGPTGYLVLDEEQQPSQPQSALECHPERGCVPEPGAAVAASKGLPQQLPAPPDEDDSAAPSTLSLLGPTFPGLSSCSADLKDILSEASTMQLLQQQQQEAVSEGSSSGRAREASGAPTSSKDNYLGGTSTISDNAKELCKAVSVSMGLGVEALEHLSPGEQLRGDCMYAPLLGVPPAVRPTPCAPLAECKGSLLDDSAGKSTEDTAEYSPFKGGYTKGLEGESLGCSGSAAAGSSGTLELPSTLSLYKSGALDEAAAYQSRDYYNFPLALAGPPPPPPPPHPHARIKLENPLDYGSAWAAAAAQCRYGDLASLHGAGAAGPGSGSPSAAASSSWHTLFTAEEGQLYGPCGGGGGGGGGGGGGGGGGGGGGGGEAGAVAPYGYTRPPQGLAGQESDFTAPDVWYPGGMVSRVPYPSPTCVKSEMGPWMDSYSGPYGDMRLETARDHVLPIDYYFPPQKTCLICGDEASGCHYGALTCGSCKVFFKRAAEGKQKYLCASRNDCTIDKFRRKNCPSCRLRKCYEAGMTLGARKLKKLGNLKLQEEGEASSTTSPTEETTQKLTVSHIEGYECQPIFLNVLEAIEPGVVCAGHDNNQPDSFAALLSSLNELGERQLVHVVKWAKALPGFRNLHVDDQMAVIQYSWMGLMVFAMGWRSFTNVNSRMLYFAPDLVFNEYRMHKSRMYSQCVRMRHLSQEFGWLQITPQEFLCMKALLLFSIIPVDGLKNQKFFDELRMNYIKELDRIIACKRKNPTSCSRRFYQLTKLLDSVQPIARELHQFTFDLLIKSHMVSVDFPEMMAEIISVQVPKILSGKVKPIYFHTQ

[42] = target: 5'-AMP-activated protein kinase catalytic subunit alpha-2 (Homo sapiens, UniProt P54646); assay: AMPKalpha2(PRA2LGY1) Takeda global kinase panel
[43] = target: Activin receptor type-1B (Homo sapiens, UniProt P36896); assay: ALK4(AC1BLGF1) Takeda global kinase panel
[44] = target: Tyrosine-protein kinase receptor TYRO3 (Homo sapiens, UniProt Q06418); assay: Tyro3 [Sky(TYR3LGY1)] Takeda global kinase panel

Q: `CN1C(=O)[C@@H](N2CCc3cn(Cc4ccccc4)nc3C2=O)COc2ccccc21` [TP-030-1] was tested. Which inhibition [1] did it give?
A: Its inhibition is 45%.

Q: What about the inhibition [2] of the same compound?
A: The inhibition was 4%.

Q: And the inhibition [3]?
A: Its inhibition is -5%.

Q: And the IC50 [4]?
A: The IC50 was 1000 nM.

Q: What about the IC50 [5] of the same compound?
A: Its IC50 is 1000 nM.

Q: What about the IC50 [6] of the same compound?
A: The IC50 was 1000 nM.

Q: What about the IC50 [7] of the same compound?
A: Its IC50 is 1000 nM.

Q: And the IC50 [8]?
A: The IC50 was 1000 nM.

Q: And the IC50 [9]?
A: Its IC50 is 1000 nM.

Q: What about the IC50 [10] of the same compound?
A: The IC50 was 1000 nM.

Q: And the IC50 [11]?
A: The IC50 was 1000 nM.

Q: And the IC50 [12]?
A: Its IC50 is 1000 nM.

Q: And the IC50 [13]?
A: Its IC50 is 1000 nM.

Q: And the IC50 [14]?
A: Its IC50 is 1000 nM.

Q: And the IC50 [15]?
A: Its IC50 is 1000 nM.

Q: And the IC50 [16]?
A: The IC50 was 1000 nM.

Q: What about the IC50 [17] of the same compound?
A: Its IC50 is 1000 nM.

Q: And the IC50 [18]?
A: The IC50 was 1000 nM.

Q: What about the IC50 [19] of the same compound?
A: Its IC50 is 1000 nM.

Q: And the IC50 [20]?
A: Its IC50 is 1000 nM.

Q: And the IC50 [21]?
A: Its IC50 is 1000 nM.

Q: And the IC50 [22]?
A: Its IC50 is 1000 nM.

Q: And the IC50 [23]?
A: The IC50 was 1000 nM.

Q: And the IC50 [24]?
A: Its IC50 is 1000 nM.

Q: And the IC50 [25]?
A: The IC50 was 1000 nM.

Q: And the IC50 [26]?
A: Its IC50 is 1000 nM.

Q: What about the IC50 [27] of the same compound?
A: The IC50 was 1000 nM.

Q: And the IC50 [28]?
A: The IC50 was 1000 nM.

Q: What about the IC50 [29] of the same compound?
A: The IC50 was 1000 nM.

Q: What about the IC50 [30] of the same compound?
A: The IC50 was 1000 nM.

Q: And the IC50 [31]?
A: The IC50 was 1000 nM.

Q: What about the IC50 [32] of the same compound?
A: Its IC50 is 1000 nM.

Q: What about the IC50 [33] of the same compound?
A: Its IC50 is 1000 nM.

Q: And the IC50 [34]?
A: Its IC50 is 1000 nM.

Q: What about the IC50 [35] of the same compound?
A: The IC50 was 1000 nM.

Q: And the IC50 [36]?
A: The IC50 was 1000 nM.

Q: And the IC50 [37]?
A: The IC50 was 1000 nM.

Q: And the inhibition [38]?
A: Its inhibition is 0%.

Q: What about the inhibition [39] of the same compound?
A: Its inhibition is 4%.

Q: And the inhibition [40]?
A: The inhibition was 1%.

Q: What about the inhibition [41] of the same compound?
A: Its inhibition is 6%.

Q: Which inhibition [1] does the source give for `CN1C(=O)[C@@H](N2CCc3cn(CC4CCS(=O)(=O)CC4)nc3C2=O)COc2ccccc21` [TP-030n] here?
A: Its inhibition is 9%.

Q: What about the inhibition [2] of the same compound?
A: The inhibition was -3%.

Q: And the inhibition [3]?
A: The inhibition was 8%.

Q: What about the IC50 [4] of the same compound?
A: The IC50 was 1000 nM.

Q: And the IC50 [5]?
A: Its IC50 is 1000 nM.

Q: And the IC50 [6]?
A: The IC50 was 1000 nM.

Q: And the IC50 [7]?
A: The IC50 was 1000 nM.

Q: And the IC50 [8]?
A: Its IC50 is 1000 nM.

Q: And the IC50 [9]?
A: The IC50 was 1000 nM.

Q: And the IC50 [10]?
A: Its IC50 is 1000 nM.

Q: What about the IC50 [11] of the same compound?
A: The IC50 was 1000 nM.

Q: And the IC50 [12]?
A: Its IC50 is 1000 nM.

Q: And the IC50 [13]?
A: The IC50 was 1000 nM.

Q: What about the IC50 [14] of the same compound?
A: The IC50 was 1000 nM.

Q: And the IC50 [15]?
A: The IC50 was 1000 nM.

Q: What about the IC50 [16] of the same compound?
A: The IC50 was 1000 nM.

Q: And the IC50 [17]?
A: Its IC50 is 1000 nM.

Q: What about the IC50 [18] of the same compound?
A: The IC50 was 1000 nM.

Q: What about the IC50 [19] of the same compound?
A: The IC50 was 1000 nM.

Q: What about the IC50 [20] of the same compound?
A: The IC50 was 1000 nM.

Q: And the IC50 [21]?
A: The IC50 was 1000 nM.

Q: What about the IC50 [22] of the same compound?
A: The IC50 was 1000 nM.

Q: And the IC50 [23]?
A: Its IC50 is 1000 nM.

Q: And the IC50 [24]?
A: Its IC50 is 1000 nM.

Q: And the IC50 [25]?
A: Its IC50 is 1000 nM.

Q: And the IC50 [26]?
A: Its IC50 is 1000 nM.

Q: And the IC50 [27]?
A: Its IC50 is 1000 nM.

Q: What about the IC50 [28] of the same compound?
A: Its IC50 is 1000 nM.

Q: What about the IC50 [29] of the same compound?
A: Its IC50 is 1000 nM.

Q: And the IC50 [30]?
A: Its IC50 is 1000 nM.

Q: What about the IC50 [31] of the same compound?
A: The IC50 was 1000 nM.

Q: And the IC50 [32]?
A: Its IC50 is 1000 nM.

Q: And the IC50 [33]?
A: The IC50 was 1000 nM.

Q: And the IC50 [34]?
A: Its IC50 is 1000 nM.

Q: What about the IC50 [35] of the same compound?
A: Its IC50 is 1000 nM.

Q: What about the IC50 [36] of the same compound?
A: The IC50 was 1000 nM.

Q: What about the IC50 [37] of the same compound?
A: Its IC50 is 1000 nM.

Q: What about the IC50 [42] of the same compound?
A: Its IC50 is 1000 nM.

Q: And the IC50 [43]?
A: Its IC50 is 1000 nM.

Q: What about the IC50 [44] of the same compound?
A: Its IC50 is 1000 nM.

Q: What about the inhibition [38] of the same compound?
A: Its inhibition is -3%.

Q: What about the inhibition [39] of the same compound?
A: Its inhibition is -5%.

Q: What about the inhibition [40] of the same compound?
A: The inhibition was -3%.

Q: What about the inhibition [41] of the same compound?
A: The inhibition was 0%.
